Assay results taken from ChEMBL document CHEMBL1144475, “Design, synthesis, and evaluation of inhibitors for severe acute respiratory syndrome 3C-like protease based on phthalhydrazide ketones or heteroaromatic esters” (J Med Chem, 2007).
Non-standard residues stand in square brackets, D forms with d. Residues, ends and D or L forms follow the SMILES beside them. *: point of attachment. Ala(2-oxopyrrolidin-3S-yl) = N[C@@H](C[C@@H]1CCNC1=O)C(=O)O; X1 = Clc1cncc(O*)c1; Bn = c1ccc(C*)cc1

How the values were obtained:
[1] = molecular target: Replicase polyprotein 1a (Severe acute respiratory syndrome-related coronavirus) (UniProt P0C6U8); test: Inhibition of SARS coronavirus His-3C-like protease at 100 uM
Replicase polyprotein 1a = Replicase polyprotein 1a (Severe acute respiratory syndrome-related coronavirus, UniProt P0C6U8); test: Inhibition of SARS coronavirus 3C-like protease
[2] = molecular target: Replicase polyprotein 1a (Severe acute respiratory syndrome-related coronavirus) (UniProt P0C6U8); test: Inhibition of SARS coronavirus 3C-like protease at 1 uM

Row | SMILES | inhibition [1] [%] | IC50 (Replicase polyprotein 1a) [nM] | inhibition [2] [%]
1 | O=Cc1cccs1 | < 10 |  | 
2 | O=C(Nc1ccncc1)c1cccs1 | < 10 |  | 
3 | O=C(Oc1cccc(Cl)c1)c1ccco1 | 40 |  | 
4 | O=C(Nc1ccc(Cl)cn1)c1cccs1 | < 10 |  | 
5 | O=C(OCc1cncc(Br)c1)c1ccco1 | 90 |  | 
6 | CC(=O)N[C@H](C(=O)N[C@H](C(=O)N[C@@H](CC(C)C)C(=O)N[C@@H](C[C@@H]1CCNC1=O)C(=O)c1cccs1)[C@@H](C)OCc1ccccc1)C(C)C | < 10 |  | 
7 | O=C(Oc1ccccn1)c1cccs1 | 13 |  | 
8 | Cc1ccc(OC(=O)c2cccs2)cn1 | < 10 |  | 
9 | CC(=O)N[C@H](C(=O)N[C@H](C(=O)N[C@@H](CC(C)C)C(=O)N[C@@H](C[C@@H]1CCNC1=O)C(=O)Oc1cncc(Cl)c1)[C@@H](C)OCc1ccccc1)C(C)C (Ac-VT(Bn)L[Ala(2-oxopyrrolidin-3S-yl)]-X1) | < 10 |  | 
10 | O=Cc1cc2ccccc2[nH]1 | 39 |  | 
11 | O=C(Oc1cncc(Cl)c1)c1ccc[nH]1 | 65 |  | 
12 | O=C(OCc1cccnc1)c1cccs1 | 19 |  | 
13 | CC(=O)N[C@H](C(=O)N[C@H](C(=O)N[C@@H](CC(C)C)C(=O)N[C@@H](Cc1ccccc1)C(=O)Cn1[nH]c(=O)c2ccccc2c1=O)[C@@H](C)OCc1ccccc1)C(C)C | 72 |  | 
14 | O=S(=O)(Nc1cccnc1)c1cccs1 | < 10 |  | 
15 | O=C(Oc1cncc(Cl)c1)c1ccoc1 | 89 |  | 
16 | O=Cc1ccco1 | 23 |  | 
17 | O=C(Oc1cccnc1Cl)c1cccs1 | 20 |  | 
18 | O=C(Nc1cccnc1Cl)c1cccs1 | < 10 |  | 
19 | Cc1ncccc1OC(=O)c1cccs1 | < 10 |  | 
20 | O=C(Oc1cncc(Cl)c1)c1cc2ccccc2o1 | 94 | 170 | 
21 | O=C(Oc1cncc(Cl)c1)c1cc2ccccc2s1 |  | 95 | 96
22 | O=C(Nc1ccc(F)cn1)c1cccs1 | < 10 |  | 
23 | O=C(Oc1cncc(Cl)c1)c1cc2ccccc2[nH]1 |  | 65 | 99

Row | SMILES | inhibition [1] [%] | IC50 (Replicase polyprotein 1a) [nM] | inhibition [2] [%]
24 | O=C(Cc1cncc(Br)c1)c1ccco1 | < 10 |  | 
25 | O=C(Oc1ccncc1)c1cccs1 | < 10 |  | 
26 | O=C(Oc1ccco1)c1cccnc1 | 80 |  | 
27 | O=C(Nc1cccnc1)c1cccs1 | 13 |  | 
28 | Cc1cccc(OC(=O)c2cccs2)n1 | 38 |  | 
29 | O=Cc1cscn1 | 36 |  | 
30 | O=C(Oc1cncc(Cl)c1)c1ccco1 | 99 | 60 | 
31 | COc1cccc(C(=O)Oc2cncc(Cl)c2)c1 |  |  | 97
32 | O=C(Oc1cncc(Cl)c1)c1cscn1 |  | 270 | 98
33 | Clc1cncc(OCc2ccco2)c1 | 11 |  | 
34 | O=C(Oc1cncc(Cl)c1)c1ccc(-c2ccc(Cl)cc2)o1 |  | 63 | 98
35 | Cc1ccc(OC(=O)c2cccs2)c([N+](=O)[O-])n1 | 15 |  | 
36 | O=C(Nc1ccccn1)c1cccs1 | < 10 |  | 
37 | CC(=O)N[C@H](C(=O)N[C@H](C(=O)N[C@@H](CC(C)C)C(=O)N[C@@H](C[C@@H]1CCNC1=O)C(=O)c1cccs1)[C@@H](C)O)C(C)C | 23 |  | 
38 | O=C(Oc1cncc(Br)c1)c1ccco1 | 99 | 50 | 98
39 | O=C(Cc1cccnc1)c1cccs1 | < 10 |  | 
40 | O=C(Oc1ccc(Cl)nc1)c1cccs1 | 13 |  | 
41 | O=C(Oc1cccnc1)c1cccs1 | 91 |  | 
42 | O=Cc1ccc(-c2ccc(Cl)cc2)o1 | 70 |  | 
43 | Cc1ccc(OC(=O)c2cccs2)nc1 | < 10 |  | 
44 | O=C(Oc1cncc(Cl)c1)c1ccccc1 | 92 |  | 
45 | O=C(Oc1cccc(Cl)n1)c1cccs1 | < 10 |  | 
